Patent US20240246918A1, “COMPOUNDS AND COMPOSITIONS AS EIF4E INHIBITORS AND THE USES THEREOF” (Ribometrix, Inc., priority 2022, published 2024)

Assays:
[1] = system: COLO 205 colorectal tumor cells; test: Tumor cell viability inhibition assay (CellTiter-Glo 2.0, 72 hours); assay type: cell-based; settings: COLO 205 cell viability
Outline: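 COLO 205 cells (1500/well, RPMI-1640 + 10% FBS) exposed for 72 h to an 11-point, 4-fold dilution series; cellular ATP read by CellTiter-Glo 2.0 luminescence. Data normalized to DMSO and maximum-inhibition controls; IC50 from 4-parameter curve fit.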

human eIF4E protein = biological target: T1, human eIF4E protein (Homo sapiens, UniProt P06730); test: Biochemical competitive binding assay (TR-FRET competition, EDA-m7GDP-ATTO-647N probe); settings: read-out: hEIF4E TR-FRET IC50
T1 construct: purchased Novus NBP-45314
Outline: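 His-tagged human eIF4E (4 nM) was preincubated with Eu-anti-His antibody (2.5 nM) and added to compound (11-point, 4-fold dilutions) for 15 min. Then 5 nM EDA-m7GDP-ATTO-647N was added for 15 min, in HEPES pH 7.5, 100 mM KCl. The 665/620 TR-FRET ratio was normalized to controls, and IC50 was taken from 4-parameter fits.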

T1 sequence (P06730 whole entry): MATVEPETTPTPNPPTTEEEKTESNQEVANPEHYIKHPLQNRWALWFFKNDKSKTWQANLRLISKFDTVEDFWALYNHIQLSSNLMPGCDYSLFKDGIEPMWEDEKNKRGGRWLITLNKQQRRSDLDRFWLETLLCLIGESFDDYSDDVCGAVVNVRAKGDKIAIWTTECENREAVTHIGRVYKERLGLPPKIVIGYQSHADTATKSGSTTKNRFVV

| IC50 ([1]; Homo sapiens, COLO 205, 72 h) [µM] | IC50 (human eIF4E protein) [µM] | IC50 [1] [µM] | Compound |
| --- | --- | --- | --- |
| < 5 | < 0.1 |  | Cc1cc(-c2cc(Cl)ccc2OCCn2c(C)nc3c(c2=O)C[C@@H](N(C)C24CC5CC(CC(C5)C2)C4)CC3)c2scc(C(=O)O)c2n1 (single isomer, unassigned) [Compound 493] |
| < 5 | < 0.1 |  | Cc1cc(-c2cc(Cl)ccc2OCCn2c(C)nc3c(c2=O)C[C@@H](N2Cc4cc(F)c(F)cc4C2)CC3)c2scc(C(=O)O)c2n1 (single isomer, unassigned) [Compound 533] |
| < 5 | < 0.1 |  | Cc1cc(-c2cc(Cl)ccc2OCCn2c(C)nc3c(c2=O)C[C@H](N2CCC[C@H](C(F)(F)F)C2)CC3)c2scc(C(=O)O)c2n1 (single isomer, unassigned) [Compound 381] |
| 5 to 20 | < 0.1 |  | Cc1cc(-c2cc(Cl)ccc2OCCn2c(C)nc3c(c2=O)C[C@@H](N2CCC(n4ccnn4)CC2)CC3)c2scc(C(=O)O)c2n1 (single isomer, unassigned) [Compound 423] |
| < 5 | < 0.1 |  | Cc1cc(-c2cc(Cl)ccc2OCCn2c(C)nc3c(c2=O)C[C@H](N2CCC4(CC2)CC(F)(F)CO4)CC3)c2scc(C(=O)O)c2n1 (single isomer, unassigned) [Compound 489] |
| < 5 | < 0.1 |  | Cc1cc(-c2cc(Cl)ccc2OCCn2c(C)nc3c(c2=O)C[C@H](N2CCC[C@@]4(CN(CC(F)(F)F)CC4(F)F)C2)CC3)c2scc(C(=O)O)c2n1 (single isomer, unassigned) [Compound 513] |
| < 5 | < 0.1 |  | Cc1cc(-c2cc(Cl)ccc2OCCn2c(C)nc3c(c2=O)C[C@@H](N2CCC4(CC2)CC4(F)F)CC3)c2scc(C(=O)O)c2n1 (single isomer, unassigned) [Compound 391] |
| < 5 | < 0.1 |  | Cc1cc(-c2cc(Cl)ccc2OCCn2c(C)nc3c(c2=O)C[C@H](N2CC[C@H](OC(F)(F)F)C(C)(C)C2)CC3)c2scc(C(=O)O)c2n1 (single isomer, unassigned) [Compound 394] |
|  | < 0.1 | < 5 | Cc1cc(-c2cc(Cl)ccc2C#CCn2c(C)nc3c(c2=O)CC(C)(N2CCCC4(C2)CC4(F)F)CC3)c2scc(C(=O)O)c2n1 (single isomer, unassigned) [Compound 614] |
|  | < 0.1 | < 5 | Cc1nc2c(c(=O)n1CC#Cc1ccc(Cl)cc1-c1ccnc3c(C(=O)O)csc13)CC(N1CCC(OC(F)(F)F)CC1)CC2 (single isomer, unassigned) [Compound 535] |
| < 5 | < 0.1 |  | Cc1cc(-c2cc(Cl)ccc2OCCn2c(C)nc3c(c2=O)C[C@H](N2C[C@H]4CC[C@@H]2CC4OC(F)(F)F)CC3)c2scc(C(=O)O)c2n1 (single isomer, unassigned) [Compound 499] |
| < 5 | < 0.1 |  | Cc1cc(-c2cc(Cl)ccc2OCCn2c(C)nc3c(c2=O)C[C@H](N2CC4(CCC(F)(F)CC4)C2)CC3)c2scc(C(=O)O)c2n1 (single isomer, unassigned) [Compound 131] |
| > 20 | < 0.1 |  | Cc1cc(-c2cc(Cl)ccc2OCCn2c(C)nc3c(c2=O)C[C@H](N2CCC(c4cn(C)cn4)CC2)CC3)c2scc(C(=O)O)c2n1 (single isomer, unassigned) [Compound 486] |
| > 20 | 0.1 to 0.5 |  | Cc1cc(-c2cc(Cl)ccc2OCCn2c(C)nc3c(c2=O)C[C@@H](N2CCCC[C@H]2c2cccc(C(F)(F)F)c2)CC3)c2scc(C(=O)O)c2n1 (single isomer, unassigned) [Compound 589] |
| < 5 | < 0.1 |  | COC1(C)CCN(C2CCc3nc(C)n(CCOc4ccc(Cl)cc4-c4cc(C)nc5c(C(=O)O)csc45)c(=O)c3C2)CC1 (stereo not shown) [Compound 134] |
| > 20 | < 0.1 |  | Cc1cc(-c2cc(Cl)ccc2OCCn2c(C)nc3c(c2=O)C[C@@H](N(C)[C@H]2CC[C@@](C)(O)CC2)CC3)c2scc(C(=O)O)c2n1 (single isomer, unassigned) [Compound 225] |
| > 20 | < 0.1 |  | Cc1cc(-c2cc(Cl)ccc2OCCn2c(C)nc3c(c2=O)CC(N2CCc4nc[nH]c4C2)CC3)c2scc(C(=O)O)c2n1 (stereo not shown) [Compound 155] |
